This passage reports pest or weed control and melting point results from US9199943B2, “2-(poly-substituted aryl)-6-amino-5-halo-4-pyrimidinecarboxylic acids and their use as herbicides” (Dow AgroSciences, LLC., priority 2006, dated 2015).

Data set [1] deals with GALAP = Galium aparine. The data set is described as follows: Postemergence herbicidal activity in cereal crops, Galium aparine. The class given is in vivo. The settings on record: post-emergence, 480 h, post-emergent, after 20-22 days; for pest or weed control at 35 g/ha: 35 g ai/ha; for pest or weed control at 17.5 g/ha: 17.5 g ai/ha; for pest or weed control at 70 g/ha: 70 g ai/ha. The method, then:
(§1) Seeds of the desired test plant species were planted in Sun Gro MetroMix® 306 planting mixture, which typically has a pH of 6.0 to 6.8 and an organic matter content of about 30 percent, in plastic pots with a surface area of 103.2 square centimeters. When required to ensure good germination and healthy plants, a fungicide treatment and/or other chemical or physical treatment was applied. The plants were grown for 7-36 days in a greenhouse with an approximate 14 hour photoperiod which was maintained at about 18° C. during the day and 17° C. during the night. Nutrients and water were added on a regular basis and supplemental lighting was provided with overhead metal halide 1000-Watt lamps as necessary. The plants were employed for testing when they reached the second or third true leaf stage.
(§2) A weighed amount, determined by the highest rate to be tested, of each test compound was placed in a 25 mL glass vial and was dissolved in 8 mL of a 97:3 v/v mixture of acetone and DMSO to obtain concentrated stock solutions. […] The concentrated stock solutions obtained were diluted with 16 mL of an aqueous mixture containing acetone, water, isopropyl alcohol, DMSO, Agri-dex crop oil concentrate, and Triton X-77 surfactant in a 64.7:26.0:6.7:2.0:0.7:0.01 v/v ratio to obtain spray solutions containing the highest application rates. Additional application rates were obtained by serial dilution of 12 mL of the high rate solution into a solution containing 4 mL of 97:3 v/v mixture of acetone and DMSO and 8 mL of an aqueous mixture containing acetone, water, isopropyl alcohol, DMSO, Agri-dex crop oil concentrate, and Triton X-77 surfactant in a 48.5:39.0:10.0:1.5:1.0:0.02 v/v ratio to obtain ½×, ¼×, ⅛× and 1/16× rates of the high rate. Compound requirements are based upon a 12 mL application volume at a rate of 187 L/ha. Formulated compounds were applied to the plant material with an overhead Mandel track sprayer equipped with a 8002E nozzles calibrated to deliver 187 L/ha over an application area of 0.503 square meters at a spray height of 18 inches (43 cm) above average plant canopy height. Control plants were sprayed in the same manner with the blank.
(§3) The treated plants and control plants were placed in a greenhouse as described above and watered by sub-irrigation to prevent wash-off of the test compounds. After 20-22 days, the condition of the test plants as compared with that of the untreated plants was determined visually and scored on a scale of 0 to 100 percent where 0 corresponds to no injury and 100 corresponds to complete kill.

The test system of data set [2] is HORVS = barley (Hordeum vulare). The data set is described as follows: Postemergence herbicidal activity in cereal crops, barley. The settings on record: post-emergence, 480 h, post-emergent, barley (crop), after 20-22 days; for pest or weed control at 35 g/ha: 35 g ai/ha; for pest or weed control at 17.5 g/ha: 17.5 g ai/ha; for pest or weed control at 70 g/ha: 70 g ai/ha. The class given is in vivo. As for the experimental part:
as §1, §2, §3

Data set [3] deals with LAMPU = Lamium purpureum. Nature of the data set: Postemergence herbicidal activity in cereal crops, Lamium purpureum. It counts as in vivo. The conditions noted are these: post-emergence, 480 h, post-emergent, after 20-22 days; for pest or weed control at 35 g/ha: 35 g ai/ha; for pest or weed control at 17.5 g/ha: 17.5 g ai/ha; for pest or weed control at 70 g/ha: 70 g ai/ha. The method, then: as §1, §2, §3

Data set [4] relates to VERPE = Veronica persica. The data set is described as follows: Postemergence herbicidal activity in cereal crops, Veronica persica. It counts as in vivo. The conditions noted are these: post-emergence, 480 h, post-emergent, after 20-22 days; for pest or weed control at 35 g/ha: 35 g ai/ha; for pest or weed control at 17.5 g/ha: 17.5 g ai/ha; for pest or weed control at 70 g/ha: 70 g ai/ha. As for the experimental part: as §1, §2, §3

Data set [5] relates to HELAN = sunflower (Helianthus annuus). The data set is described as follows: General preemergence herbicidal activity, sunflower. It counts as in vivo. The settings on record: Helianthus annuus, pre-emergence, 480 h, pre-emergent, visual score after 20-22 days; for pest or weed control at 140 g/ha: 140 g ai/ha. The source says: (§4) Seeds of the desired test plant species were planted in a soil matrix prepared by mixing a loam soil (43 percent silt, 19 percent clay, and 38 percent sand, with a pH of about 8.1 and an organic matter content of about 1.5 percent) and sand in a 70 to 30 ratio. The soil matrix was contained in plastic pots with a surface area of 113 square centimeters. When required to ensure good germination and healthy plants, a fungicide treatment and/or other chemical or physical treatment was applied. A weighed amount, determined by the highest rate to be tested, of each test compound was placed in a 25 mL glass vial and was dissolved in 6 mL of a 97:3 v/v (volume/volume) mixture of acetone and DMSO to obtain concentrated stock solutions. […] The stock solutions obtained were diluted with 18 mL of a 0.1% v/v aqueous solution of Tween® 20 surfactant to obtain spray solutions containing the highest application rate. Additional application rates were obtained by serial dilution of 12 mL of the high rate solution into a solution containing 3 mL of 97:3 v/v mixture of acetone and DMSO and 9 mL of the 0.1% v/v aqueous solution of Tween® 20 surfactant to obtain 1⁄2×, 1⁄4×, 1⁄8× and 1/16× rates of the high rate. Compound requirements are based upon a 12 mL application volume at a rate of 187 L/ha. Formulated compounds were applied to the plant material with an overhead Mandel track sprayer equipped with a […] nozzles calibrated to deliver 187 L/ha over an application area of 0.503 square meters at a spray height of 18 inches (43 cm) above the soil surface. Control plants were sprayed in the same manner with the solvent blank. The treated pots and control pots were placed in a greenhouse maintained with an approximate 15 hour photoperiod and temperatures of about 23-29° C. during the day and 22-28° C. during the night. Nutrients and water were added on a regular basis and supplemental lighting was provided with overhead metal halide 1000-Watt lamps as necessary. The water was added by top-irrigation. After 20-22 days, the condition of the test plants that germinated and grew as compared with that of the untreated plants that emerged and grew was determined visually and scored on a scale of 0 to 100 percent where 0 corresponds to no injury and 100 corresponds to complete kill or no emergence.

Data set [6] concerns CHEAL = lambsquarter (Chenopodium album). The data set is described as follows: General preemergence herbicidal activity, lambsquarter. It counts as in vivo. The settings on record: Chenopodium album, pre-emergence, 480 h, pre-emergent, visual score after 20-22 days; for pest or weed control at 140 g/ha: 140 g ai/ha.
Excerpt: as §4

In data set [7] the test system is ABUTH = velvetleaf (Abutilon theophrasti). Nature of the data set: General preemergence herbicidal activity, velvetleaf. The class given is in vivo. The settings on record: Abutilon theophrasti, pre-emergence, 480 h, pre-emergent, visual score after 20-22 days; for pest or weed control at 140 g/ha: 140 g ai/ha.
Excerpt: as §4

As to `CCOc1c(Cl)ccc(-c2nc(N)c(Cl)c(C(=O)OC)n2)c1F` [Compound 1, 6-amino-5-chloro-2-(4-chloro-3-ethoxy-2-fluorophenyl)-pyrimidine-4-carboxylic acid methyl ester], the pest or weed control at 35 g/ha in data set [1] was 99%; in data set [2] it was 0%; in data set [3] it was 85%; in data set [4], 20%.
In the case of `COC(=O)c1nc(-c2c(F)cc(Cl)c(OC)c2F)nc(N)c1Cl` [Compound 2, 6-amino-5-chloro-2-(4-chloro-2,6-difluoro-3-methoxy-phenyl)pyrimidine-4-carboxylic acid methyl ester], the pest or weed control at 35 g/ha was determined as 95% in data set [1], 0% in data set [2], 95% in data set [3] and 50% in data set [4]. Also, the pest or weed control at 140 g/ha in data set [5] worked out at 20%; in data set [6], 90%; in data set [7] it was 100%.
`COC(=O)c1nc(-c2ccc(Cl)c(OC)c2F)nc(N)c1Cl` [Compound 3, 6-amino-5-chloro-2-(4-chloro-2-fluoro-3-methoxyphenyl)-pyrimidine-4-carboxylic acid methyl ester]: the pest or weed control at 17.5 g/ha amounted to 95% in data set [1], 0% in data set [2], 99% in data set [3] and 99% in data set [4].
As for `COC(=O)c1nc(-c2ccc(Cl)c(OC)c2Cl)nc(N)c1Cl` [Compound 6, 6-Amino-5-chloro-2-(2,4-dichloro-3-methoxyphenyl)pyrimidine-4-carboxylic acid methyl ester], the pest or weed control at 70 g/ha came out at 85% in data set [1], 0% in data set [2], 99% in data set [3] and 99% in data set [4]. Also, the pest or weed control at 140 g/ha in data set [5] is 90%; in data set [6], 100%; in data set [7], 60%.
Regarding `COC(=O)c1nc(-c2ccc(Cl)c(C(F)F)c2F)nc(N)c1Cl` [Compound 7, 6-Amino-5-chloro-2-(4-chloro-3-difluoromethyl-2-fluorophenyl)pyrimidine-4-carboxylic acid methyl ester], the melting point lay in the range of 155 to 157 °C. The same compound had a pest or weed control at 17.5 g/ha in data set [1] of 60%. Moreover, the pest or weed control at 140 g/ha in data set [5] is 90%. This compound returned a pest or weed control at 140 g/ha in data set [6] of 70%. Further, the pest or weed control at 17.5 g/ha in data set [2] was 0%. For the same compound, the pest or weed control at 17.5 g/ha in data set [3] was 90%. This compound also displayed a pest or weed control at 17.5 g/ha in data set [4] of 95%. The compound further yielded a pest or weed control at 140 g/ha in data set [7] of 75%.
`COC(=O)c1nc(-c2ccc(Cl)c(N(C)C)c2F)nc(N)c1Cl` [Compound 8, 6-Amino-5-chloro-2-(4-chloro-3-dimethylamino-2-fluorophenyl)pyrimidine-4-carboxylic acid methyl ester] returned a melting point of 143 to 144 °C. In data set [1], the pest or weed control at 35 g/ha was 70%. In addition, the pest or weed control at 35 g/ha in data set [2] was 0%. This compound also gave a pest or weed control at 35 g/ha in data set [3] of 85%. The compound also had a pest or weed control at 35 g/ha in data set [4] of 95%.
For `COC(=O)c1nc(-c2ccc3c(c2F)OCO3)nc(N)c1Cl` [Compound 9, 6-Amino-5-chloro-2-(4-fluorobenzo[1,3]dioxol-5-yl)pyrimidine-4-carboxylic acid methyl ester], the pest or weed control at 70 g/ha in data set [1] is 90%; in data set [2], 0%; in data set [3] it was 100%; in data set [4] it was 30%.
`COC(=O)c1nc(-c2ccc(Cl)c(OCC(F)F)c2F)nc(N)c1Cl` [Compound 10, 6-Amino-5-chloro-2-[4-chloro-3-(2,2-difluoroethoxy)-2-fluorophenyl]-pyrimidine-4-carboxylic acid methyl ester] showed a melting point of 139 to 141 °C. In data set [1], the pest or weed control at 70 g/ha turned out to be 65%. The same compound returned a pest or weed control at 280 g/ha in data set [5] (280 g ai/ha) of 0%. The same compound gave a pest or weed control at 280 g/ha in data set [6] (280 g ai/ha) of 60%. Also, the pest or weed control at 70 g/ha in data set [2] was 0%. In data set [3], the pest or weed control at 70 g/ha turned out to be 85%. In addition, in data set [4], the pest or weed control at 70 g/ha was found to be 20%. The compound also came in with a pest or weed control at 280 g/ha in data set [7] (280 g ai/ha) of 80%.
As to `COC(=O)c1nc(-c2ccc(Cl)c(OC)c2F)nc(N)c1Br` [Compound 13, 6-amino-5-bromo-2-(4-chloro-2-fluoro-3-methoxyphenyl)-pyrimidine-4-carboxylic acid methyl ester], the pest or weed control at 17.5 g/ha was 90% in data set [1], 0% in data set [2], 95% in data set [3] and 95% in data set [4].
